Experimental data: patent publication US9259409B2, “Compositions comprising a prostaglandin for treating neuropsychiatric conditions” (Inceptum Research & Therapeutics, Inc., priority 2011, dated 2016)

What was measured:
[1] = system: GSK-3; test: Cytoplasmic β-catenin stabilization in HEK293T cells (Western blot); assay type: cell-based, human; settings: 10 μM, vs DMSO-treated cells
Procedure: Human embryonic kidney 293T (HEK293T) cells, U87MG astrocytoma and the human oligodendrocyte cell line MO3-13 were grown in Dubelco Minimal Eagle Media (DMEM) (Invitrogen, Carlsbad, Calif., USA) supplemented with 5% heat inactivated fetal bovine serum. Cells were grown to 70% confluence prior to treatment. […] Cells were exposed to drug for 3 hours at 37° C. in a 5% CO2 incubator. U87MG cells were grown to 70% confluence prior to treatment. Cells were treated with either DMSO vehicle (NT) or individually with 1, 5 and 10 μM latanoprost in DMEM lacking fetal bovine serum. Cells were exposed to treatments for 6 hours at 37° C. in a 5% CO2 incubator. The human oligodendrocyte cell line MO3-13 was grown and differentiated according to the methods described in McLaurin et al. (McLaurin, J., Trudel, G. C., Shaw, I. T., Antel, J. P., and Cashman, N. R., J. Neurobiol., 26: 283-293, 1995). On the third day of serum starvation, cells were treated with either DMSO vehicle (NT) or individually with 1, 5 and 10 μM latanoprost. Cells were exposed to treatments for 6 hours at 37° C. in a 5% CO2 incubator.
For detection of CREB and Serine-133 (S133)-phosphorylated CREB, serotonin receptor 5HT2A, TCF/LEF1, BDNF and TNF-total protein extracts were prepared from cell cultures using a sintered glass tissue homogenizer (Wheaton, Millville, N.J., USA) in phosphate-buffered saline (PBS), pH 7.5, 3M urea. For detection of β-catenin, cell cultures were washed with PBS, trypsinized, and pelleted at 1,000 rpm for 4 minutes. The cell pellets were washed and resuspended in cold hypotonic buffer consisting of 10 mM HEPES (pH 7.5), 1.5 mM MgCl2, 10 mM KCl, 0.5 mM DTT, and EDTA-free protease inhibitor (Roche, Laval, QC, Canada) in an ice bath for 5 minutes. The mixture was then homogenized using a dounce homogenizer and the cellular debris was pelleted by centrifugation at 4° C. Cytoplasmic fractions were recovered and used for assaying β-catenin.
Protein concentrations were determined by the Peterson method (Peterson, Analyt. Biochem., 83: 346-356, 1977). […]

[2] = system: GSK-3; test: Distalless (Dll) expression in Drosophila wing imaginal discs as assay of GSK-3 function; assay type: cell-based; settings: 1 mM; Dll lacZ; vs DMSO

| Compound | levels of cytoplasmic β-catenin [1] | Dll expression in wing imaginal discs [2] |
| --- | --- | --- |
| CCCCC[C@H](O)/C=C/[C@@H]1[C@@H](C/C=C\CCCC(=O)O)[C@@H](O)C[C@H]1O [PGF2α, (Z)-7-[(1R,2R,3R,5S)-3,5-dihydroxy-2-[(E)-(3S)-3-hydroxy-1-octenyl]-cyclopentyl]-5-heptenoic acid] | increased levels of cytoplasmic β-catenin |  |
| CCCC(CCC)C(=O)O [valproate] |  | activation of Dll expression |
| CCCCC[C@H](O)/C=C/[C@H]1[C@H](O)CC(=O)[C@@H]1C/C=C\CCCC(=O)O [PGE2, (Z)-7-[(1R,2R,3R)-3-hydroxy-2-[(E)-(3S)-3-hydroxy-1-octenyl]-5-oxo-cyclopentyl]-hept-5-enoic acid] | increased levels of cytoplasmic β-catenin |  |
